Measured values as given in patent publication US10858406B2 (priority 2014, dated 2020).

Tested on: potassium ion channel current of the DRG neurons
Format: cell-based, SD rats
Conditions: 5 mM

Nc1ccncc1 [4AP, 4-aminopyridine]
Current inhibition rate: 0.338 | Current recorded after loading: 0.9766 nA
